Data taken from patent US11407737B2, “Inhibitors of RAF kinases” (Kinnate Biopharma Inc., priority 2020, dated 2022).
pIC50: −log10 of the molar value.

Target: human RAF1 (Homo sapiens (Human), UniProt P04049)
Assay: Protein kinase assay (radiometric 33P-ATP, MEK1 (K97R) substrate), RAF-1
Type: biochemical
Conditions: human MEK1 (K97R) substrate 3 micromolar, ATP 10 micromolar; 10-dose, 3-fold serial dilution starting at 10 micromolar; read-out: RAF-1 IC50
Summary of the method: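 Radiometric filter-binding assay with RAF1 and MEK1 (K97R) substrate at 3 micromolar and 10 micromolar final ATP, in HEPES pH 7.5 buffer with 1% DMSO. Reactions ran 2 hr at room temperature with [γ-33P]ATP. IC50 was derived from remaining activity relative to DMSO control.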

Sequence of human RAF1 (P04049 whole entry): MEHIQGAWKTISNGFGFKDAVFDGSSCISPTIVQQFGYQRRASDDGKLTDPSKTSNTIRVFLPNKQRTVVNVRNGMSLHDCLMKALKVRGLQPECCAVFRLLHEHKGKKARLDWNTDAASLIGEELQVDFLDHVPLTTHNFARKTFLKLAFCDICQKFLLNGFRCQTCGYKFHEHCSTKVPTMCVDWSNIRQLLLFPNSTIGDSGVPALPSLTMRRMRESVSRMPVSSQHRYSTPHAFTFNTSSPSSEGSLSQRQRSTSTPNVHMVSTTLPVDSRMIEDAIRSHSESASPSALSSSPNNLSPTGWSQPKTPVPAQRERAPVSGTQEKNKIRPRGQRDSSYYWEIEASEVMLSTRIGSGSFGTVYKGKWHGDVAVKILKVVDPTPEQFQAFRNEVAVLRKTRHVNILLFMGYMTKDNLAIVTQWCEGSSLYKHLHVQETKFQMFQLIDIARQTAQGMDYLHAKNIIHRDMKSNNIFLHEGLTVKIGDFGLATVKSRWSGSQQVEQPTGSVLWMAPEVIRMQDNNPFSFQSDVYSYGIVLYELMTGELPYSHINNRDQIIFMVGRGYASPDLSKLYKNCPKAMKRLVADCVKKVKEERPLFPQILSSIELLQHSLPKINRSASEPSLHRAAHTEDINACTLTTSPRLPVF

Structure (SMILES)	pIC50
Cc1cc(F)c(NC(=O)N2CC[C@@H](CC(F)(F)F)C2)cc1-c1cc(-c2cnn(C)c2)nc(N2CCOCC2)c1 [Example 74, (3S)—N-{2-fluoro-4-methyl-5-[2-(1-methylpyrazol-4-yl)-6-(morpholin-4-yl)pyridin-4-yl]phenyl}-3-(2,2,2-trifluoroethyl)pyrrolidine-1-carboxamide]	> 9.00
Cc1cc(F)c(NC(=O)N2CC[C@@H](C(F)(F)F)C2)cc1-c1cc(-c2cnn(C)c2)nc(N2CCOCC2)c1 [Example 75, (3R)—N-{2-fluoro-4-methyl-5-[2-(1-methylpyrazol-4-yl)-6-(morpholin-4-yl)pyridin-4-yl]phenyl}-3-(trifluoromethyl)pyrrolidine-1-carboxamide]	> 9.00
Cc1cc(F)c(NC(=O)N2CC[C@H](C(F)(F)F)C2)cc1-c1cc(-c2cnn(C)c2)nc(N2CCOCC2)c1 [Example 76, (3S)—N-{2-fluoro-4-methyl-5-[2-(1-methylpyrazol-4-yl)-6-(morpholin-4-yl)pyridin-4-yl]phenyl}-3-(trifluoromethyl)pyrrolidine-1-carboxamide]	> 9.00
Cc1cc(F)c(NC(=O)N2CC=C(CC(F)(F)F)C2)cc1-c1cc(-c2cnn(C)c2)nc(N2CCOCC2)c1 [Example 77, N-{2-fluoro-4-methyl-5-[2-(1-methylpyrazol-4-yl)-6-(morpholin-4-yl)pyridin-4-yl]phenyl}-3-(2,2,2-trifluoroethyl)-2,5-dihydropyrrole-1-carboxamide]	> 9.00
CCn1cc(-c2cc(-c3cc(NC(=O)N4CC[C@@H](CC(F)(F)F)C4)ccc3C)cc(N3CCOCC3)n2)cn1 [Example 78, (3S)—N-{3-[2-(1-ethylpyrazol-4-yl)-6-(morpholin-4-yl)pyridin-4-yl]-4-methylphenyl}-3-(2,2,2-trifluoroethyl)pyrrolidine-1-carboxamide]	> 9.00
Cc1cc(F)c(NC(=O)N2CC=C(C(F)(F)C(F)(F)F)C2)cc1-c1cc(-c2cnn(C)c2)nc(N2CCOCC2)c1 [Example 79, N-{2-fluoro-4-methyl-5-[2-(1-methylpyrazol-4-yl)-6-(morpholin-4-yl)pyridin-4-yl]phenyl}-3-(1,1,2,2,2-pentafluoroethyl)-2,5-dihydropyrrole-1-carboxamide]	8.00 to 9.00
Cc1cc(F)c(NC(=O)N2CC[C@H](C(C)(C)C)C2)cc1-c1cc(-c2cnn(C)c2)nc(N2CCOCC2)c1 [Example 83, (3R)-3-tert-butyl-N-{2-fluoro-4-methyl-5-[2-(1-methylpyrazol-4-yl)-6-(morpholin-4-yl)pyridin-4-yl]phenyl}pyrrolidine-1-carboxamide]	8.00 to 9.00
Cc1cc(F)c(NC(=O)N2CCC(C(C)(C)F)C2)cc1-c1cc(-c2cnn(C)c2)nc(N2CCOCC2)c1 (centres unmarked) [Example 85, N-{2-fluoro-4-methyl-5-[2-(1-methylpyrazol-4-yl)-6-(morpholin-4-yl)pyridin-4-yl]phenyl}-3-(2-fluoropropan-2-yl)pyrrolidine-1-carboxamide]	8.00 to 9.00
